System: SD rats
Assay: Feces excretion time and evaluation of efficiency (barium-containing diet, oral administration)
Type: in vivo, rat
Conditions: for Feces excretion time (min) @ volume (mg/kg): observed 10 hours
Experimental: Eight-week-old SD rats were purchased and allowed to adapt to breeding conditions under 12-hour illumination at 24° C. for 7 days. The rats were made to fast for 16 hours before the experimental day, and orally administered on the experimental day with a vehicle (0.5% methylcellulose) and a test material, […], respectively. Thirty minutes after the administration, the rats fed with 3 g of a barium-containing diet were placed into a metabolism cage and observed to record the time required for the barium to be excreted as feces in each rat after being passed through the intestines for 10 hours. Additionally, the percentage of rats that excreted barium-containing feces within 10 hours were calculated, and the results are shown in Table 1 below.

SMILES	Percentage of subjects excreting feces within 10 hours (%) (0.1 mg/kg)	Feces excretion time (min) @ volume (mg/kg) (0.1 mg/kg)	Percentage of subjects excreting feces within 10 hours (%) (1 mg/kg)	Feces excretion time (min) @ volume (mg/kg) (1 mg/kg)	Percentage of subjects excreting feces within 10 hours (%) (5 mg/kg)	Feces excretion time (min) @ volume (mg/kg) (5 mg/kg)
CCCCC1(CCCC)CN(c2ccccc2)c2cc(SC)c(CNCC(=O)O)cc2S(=O)(=O)C1 [Example 1, 2-(((3,3-dibutyl-7-methylthio-1,1-dioxido-5-phenyl-2,3,4,5-tetrahydrobenzo[b][1,4]thiazepine-8-yl)methyl)amino)acetic acid]	B @ 0.1 (B: 50-75%)	C @ 0.1 (C: 501-590 min)	A @ 1 (A: 76-100%)	B @ 1 (B: 401-500 min)	A @ 5 (A: 76-100%)	A @ 5 (A: 301-400 min)
CCCCC1(CCCC)CN(c2ccccc2)c2cc(SC)c(CNC(=O)CS(=O)(=O)O)cc2S(=O)(=O)C1 [Example 18, 2-(((3,3-dibutyl-7-methylthio-1,1-dioxido-5-phenyl-2,3,4,5-tetrahydrobenzo[b][1,4]thiazepine-8-yl)methyl)amino)-2-oxoethanesulfonic acid]	–	–	B @ 1 (B: 50-75%)	B @ 1 (B: 401-500 min)	–	–
CCCCC1(CCCC)CN(c2ccc(OC)cc2)c2cc(SC)c(CNCC(=O)O)cc2S(=O)(=O)C1 [Example 19, 2-(((3,3-dibutyl-5-(4-methoxyphenyl)-7-methylthio-1,1-dioxido-2,3,4,5-tetrahydrobenzo[b][1,4]thiazepine-8-yl)methyl)amino)acetic acid]	–	–	A @ 1 (A: 76-100%)	C @ 1 (C: 501-590 min)	A @ 5 (A: 76-100%)	B @ 5 (B: 401-500 min)
CCCCC1(CCCC)CN(c2ccc(O)cc2)c2cc(SC)c(CNCC(=O)O)cc2S(=O)(=O)C1 [Example 20, 2-(((3,3-dibutyl-5-(4-hydroxyphenyl)-7-methylthio-1,1-dioxido-2,3,4,5-tetrahydrobenzo[b][1,4]thiazepine-8-yl)methyl)amino)acetic acid]	A @ 0.1 (A: 76-100%)	C @ 0.1 (C: 501-590 min)	A @ 1 (A: 76-100%)	B @ 1 (B: 401-500 min)	A @ 5 (A: 76-100%)	A @ 5 (A: 301-400 min)
CCCCC1(CCCC)CN(c2ccc(F)cc2)c2cc(SC)c(CNCC(=O)O)cc2S(=O)(=O)C1 [Example 22, 2-(((3,3-dibutyl-5-(4-fluorophenyl)-7-methylthio-1,1-dioxido-2,3,4,5-tetrahydrobenzo[b][1,4]thiazepine-8-yl)methyl)amino)acetic acid]	A @ 0.1 (A: 76-100%)	B @ 0.1 (B: 401-500 min)	A @ 1 (A: 76-100%)	B @ 1 (B: 401-500 min)	A @ 5 (A: 76-100%)	A @ 5 (A: 301-400 min)
CCCCC1(CCCC)CN(c2ccc(OC)c(F)c2)c2cc(SC)c(CNCC(=O)O)cc2S(=O)(=O)C1 [Example 24, 2-(((3,3-dibutyl-5-(3-fluoro-4-methoxyphenyl)-7-methylthio-1,1-dioxido-2,3,4,5-tetrahydrobenzo[b][1,4]thiazepine-8-yl)methyl)amino)acetic acid]	–	–	A @ 1 (A: 76-100%)	C @ 1 (C: 501-590 min)	A @ 5 (A: 76-100%)	A @ 5 (A: 301-400 min)
